The values that follow are results of earlier work, collected in patent US20040009962A1, “Combined estrogen blockade of the breast with exemestane and raloxifene” (priority 2000, published 2004).

Like-named read-outs stand apart in the source and are kept apart here.

One data set concerns healthy men. The settings on record: 200 mg/day orally.
In a further data set the test system is endometrium. The settings on record: baseline vs 8 weeks of treatment.
For data set [1] the following is noted: deep vein thrombosis, pulmonary embolism, retinal vein thrombosis.
Data set [2] relates to rats.
Data set [3] relates to DMBA- and NMN-induced mammary carcinogenesis. The settings on record: may be less when compared with tamoxifen.
For data set [4], the system named is metastatic breast cancer. The settings on record: 200 mg/day.
In data set [5] the test system is healthy postmenopausal women.
Data set [6] has as its system metastatic breast cancer. The settings on record: 25 mg/day.
Data set [7] has as its system plasma estrogen levels (E2, E1, E1S). The settings on record: suppression of E2, E1 and E1S, postmenopausal women.
The subject of data set [8] is DMBA-induced rat mammary tumor. The note with it: DMBA-induced rat mammary tumor model.
The subject of the next data set is whole body aromatization. The settings on record: 10 postmenopausal women with advanced breast cancer.
Data set [9] relates to 7, 12-dimethyl-benzanthracene (DMBA)-induced mammary tumors. The settings on record: rats.
Data set [10] relates to metastatic breast cancer.
For data set [11] the following is noted: Ames, V79, E. coli, DNA repair on rat hepatocytes, micronucleus, in vivo and in vitro chromosome aberration.
Data set [12] relates to rats. This is another data set of the same source.
The conditions of data set [13]: except at relatively high doses.
The test system of data set [14] is metastatic breast cancer. The settings on record: 25 mg/day orally, 241 women.
The subject of data set [15] is early stage breast cancer.
Data set [16] concerns MCF-7 breast cancer cells. The settings on record: estrogen deficient state vs supplemented with estrogen.
The test system of data set [17] is metastatic breast cancer. This is another data set of the same source.
Setting [18] is: all doses, interim analysis, vs placebo.

For the compound `O=C(c1ccc(OCCN2CCCCC2)cc1)c1c(-c2ccc(O)cc2)sc2cc(O)ccc12` [raloxifene, Raloxifene], the “response to exogenous estrogen (anti-estrogen effect)” value in the data set on healthy men is listed as “blunt”. For the same compound, the “change in the endometrium on uterine biopsy” value with endometrium is reported as “no change”. Besides, the “risk of venous thromboembolic events” value in data set [1] is given as “increased risk”. For the same compound, in the data set with ovariectomized rat, the bone mineral density entry is “increases” and the serum cholesterol entry is on record as “decreases”. In the data set on rats [2], the “DNA adducts or hepatocarcinogenesis” value is on record as “no reports”. In data set [3], the anti-tumor activity entry is on record as “anti-tumor activity”. The tolerability entry with metastatic breast cancer [4] (14 patients) is “well tolerated”. In addition, the objective responses result in the data set with metastatic breast cancer [4] (tamoxifen-refractory group) is listed as “no objective responses”. In addition, in [5] (setting [18]), the “bone mineral density in the hip, spine, femur and total body” value is reported as “increase”; the “markers of bone turnover” value is on record as “decrease”. Also, in data set [5] (in vivo), the HDL cholesterol result is listed as “unchanged”; the “serum total and LDL cholesterol” value is on record as “significantly decreased”; the side effects entry is “increased hot flashes and leg cramps”; the tolerability result was “well tolerated”. The endometrial thickness result in data set [5] (transvaginal ultrasound, any treatment group) was “unaffected”. For the same compound, the “relative risk of endometrial cancer” value with postmenopausal women (p=0.232) is 0.38. The “risk reduction of breast cancer” value with postmenopausal women (raloxifene 60 or 120 mg/day vs controls) is on record as 58%. Further, the “relative risk of endometrial cancer” value with postmenopausal women (two cases diagnosed within one month of randomization excluded, p=0.045) is 0.13. Also, the “agonist activity on the rat uterus” value in the data set on rat uterus (administered alone) was “little agonist activity”. For the same compound, the “uterotropic action of estradiol” value in the data set with rat uterus (immature rat) is recorded as “inhibits”.

`C=C1C[C@@H]2[C@H](CC[C@]3(C)C(=O)CC[C@@H]23)[C@@]2(C)C=CC(=O)C=C12` [exemestane, Exemestane]: the overall response rate is recorded as 11% in the data set with metastatic breast cancer [6] (87 women, 95% CI 6-20) and 33% in the data set on metastatic breast cancer [10] (patients with visceral disease). Also, the “SD>6 months” value with metastatic breast cancer [6] (additional patients) is 17.2%. Further, in data set [7], the “dose at which inhibition of plasma estrogen levels became apparent” value is listed as “about 1 mg”. For the same compound, the “concentration from which the chromosome aberration test was positive” value with human lymphocytes is at least 12000 ng/mL. The “appearance of new tumors” value in data set [8] is listed as “reduced”. In addition, in data set [8], the objective response rate was 44%. Moreover, the “mean suppression of whole body aromatization” value with whole body aromatization is reported as 97.9%. In addition, the “whole body aromatization on treatment (mean)” value in the data set on whole body aromatization (pretreatment 2.059%) is given as 0.042%. Further, the “efficacy against DMBA-induced mammary tumors” value in data set [9] is given as “highly effective”. Further, the “overall success rate (CR+PR+SD>6 months)” value in the data set with metastatic breast cancer [10] (25 mg) is 47%; in the data set with metastatic breast cancer [14], 25%. The “overall response rate (CR+PR)” value with metastatic breast cancer [10] (25 mg, 128 postmenopausal women, 95% CI 21-37) is 28%; with metastatic breast cancer [10] (88 patients who had measurable disease), 34%. Also, the “median duration of response” value in the data set on metastatic breast cancer [10] (95% CI 11-20 months) is on record as 14 months. The “stable disease>6 months” value with metastatic breast cancer [10] (treated population) is 19%. Also, the embryotoxic dose is reported as at least 270 mg/kg in the data set on rabbits and at least 50 mg/kg in the data set on rats [12]. In addition, the teratogenicity entry in the data set with rabbits and in the data set with rats [12] was “not teratogenic” each time. The “genotoxic potential, all tests except chromosome aberration in human lymphocytes” value in data set [11] is given as “negative”. Besides, the tolerability result in data set [13] is reported as “good tolerability”. Besides, the “overall objective response rate” value in the data set with metastatic breast cancer [14] (third- and fourth-line) was 7%.

Consider `CC/C(=C(\c1ccccc1)c1ccc(OCCN(C)C)cc1)c1ccccc1` [tamoxifen, Tamoxifen], for which, in [15] (adjuvant therapy, premenopausal and postmenopausal women), the “annual rates of recurrence and mortality” value was “reduce”. For the same compound, the “reduction of the risk of contralateral breast cancer” value in [15] (five years of adjuvant tamoxifen vs no adjuvant therapy) is 47%. In data set [8], the “appearance of new tumors” value was “reduced” and the objective response rate is listed as 29%. Also, the tumor mitotic rate result in data set [16] is listed as “marked reduction”. In the data set on metastatic breast cancer [17] (premenopausal women, metastatic breast cancer), the response rates was 20 to 45%. Further, the objective response rates with metastatic breast cancer [17] (unselected postmenopausal women with metastatic disease) was 30 to 40%. In addition, the response rates with metastatic breast cancer [17] (women with ER-positive and PR-positive tumors) was 60-70%.

For the compound estrogen, in the data set on endometrium, the “change in the endometrium on uterine biopsy” value is recorded as “significant endometrial stimulation”.
